Legend:
Format in all cases: cell-based, human
MAO-B = system: T1, MAO-B; test: MAO-B activity assay in corticosteroid-stimulated BJ cells; conditions: then 50 μM compound 24 h
T1 construct: endogenous in cells; host or cells: BJ human foreskin fibroblasts stimulated with DEX or HC
Experimental: The BJ cells were subsequently incubated with 10 μM HC or 100 μM DEX to stimulate MAO expression. […] The untreated BJ cells received normal growth medium. The cells were collected, homogenised, and analysed through Western blotting where the expression of MAO-A/B was determined through immunodetection of protein subtypes.
(§1) Activity assays were commercially sourced from BioVision (Abcam, BioVision ab241031, Waltham, MA, USA) and were performed according to manufacturer’s instructions. The treatment groups were plated in duplicate on a black, flat 96-well microplate. The cells were homogenised in assay buffer using a microtube mixer at 4 °C and centrifuged at 10,000× g for 10 min. A Bradford assay was performed to determine the total protein concentration within each cell pellet (200 μg/well for BJ cells, 40 μg/well for hESC-derived neurons). Approximately 40 μL of supernatant was loaded into wells along with 10 μL of either […], or assay buffer for total MAO activity. A H2O2 standard was pipetted as supplied and 50 μL of reaction mix was pipetted into all wells. Using a CLARIOstar Plus Microplate Reader, (BMG Labtech, Ortenberg, Germany), fluorescence was measured kinetically at 25 °C for 60 min with Ex/Em = 535/587 nm.

total MAO = test: Total MAO activity assay in hESC-derived neurons stimulated with ATRA; conditions: 1 μM ATRA 24 h, then TCP 5 μM, OLC 50 μM or OLP 50 μM for 24 h
Experimental: (§2) An in vitro model of MDD was designed for stem cell-derived neuronal cells through incubation of 1 μM all-trans retinoic acid (Sigma-Aldrich PHR1187, St. Louis, MO, USA). All cell treatments were conducted in duplicate and replicated using independently differentiating neuronal plates.
as §1

MAO-A = system: T2, MAO-A; test: MAO-A activity assay in hESC-derived neurons stimulated with ATRA; conditions: 1 μM ATRA 24 h, then TCP 5 μM, OLC 50 μM or OLP 50 μM for 24 h
T2 construct: endogenous in cells; host or cells: BJ human foreskin fibroblasts stimulated with DEX or HC
Experimental: as §2, §1

## COC(=O)[C@H](O)CC(=O)OCCc1ccc(O)c(O)c1 [OLP, oleohydroxypyretol]
MAO-B; 10 μM HC 5 days
  MAO-B activity in BJ cells: downregulate
MAO-B; 100 μM DEX 7 days
  MAO-B activity in BJ cells: downregulate
Total MAO
  total MAO activity in hESC-derived neurons: significantly reduced
MAO-A
  MAO-A activity in hESC-derived neurons: significantly reduced

Source: article PMC11173677, “Identification and Evaluation of Olive Phenolics in the Context of Amine Oxidase Enzyme Inhibition and Depression: In Silico Modelling and In Vitro Validation” (Molecules, 2024)
